Measured values as given in paper PMC5062570 (Nature Communications, 2016).
Entries after “also recorded” stand apart in the source; their conditions may differ. Where two headings read alike, the source gives them in different places.

Key:
[1] = target: T1, BACE2 (Homo sapiens, UniProt Q9Y5Z0); test: BACE2 purified enzyme fluorescence polarization assay; format: biochemical
T1 construct: purchased R&D Systems 4097-AS
T1 sequence (Q9Y5Z0 63-518): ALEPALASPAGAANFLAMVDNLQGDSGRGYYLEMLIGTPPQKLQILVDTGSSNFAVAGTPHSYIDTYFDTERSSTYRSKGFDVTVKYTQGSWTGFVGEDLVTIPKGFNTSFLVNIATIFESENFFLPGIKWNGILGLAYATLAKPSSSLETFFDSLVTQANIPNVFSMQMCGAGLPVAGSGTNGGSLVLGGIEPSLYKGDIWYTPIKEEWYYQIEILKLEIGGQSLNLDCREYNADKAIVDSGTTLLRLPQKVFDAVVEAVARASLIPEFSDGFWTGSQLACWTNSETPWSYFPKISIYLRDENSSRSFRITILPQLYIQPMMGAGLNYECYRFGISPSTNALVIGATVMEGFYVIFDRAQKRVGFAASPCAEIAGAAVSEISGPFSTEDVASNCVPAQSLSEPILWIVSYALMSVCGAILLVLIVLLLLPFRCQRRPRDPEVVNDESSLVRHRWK
Procedure: (§1) Purified enzyme inhibition of BACE1, BACE2, CatD and CatE was determined using fluorescence polarization (FP) assays. Briefly, purified enzymes were treated with test compounds (1% DMSO, 37 °C) in the presence of synthetic peptide substrates (150 nM) in 30 μl total volume of NaOAc buffer (100 mM, pH 4.5, 0.0001% Tween-20) in a 384-well plate. After incubation, reactions were stopped and substrate captured by the addition of 1.5 μM streptavidin, and FP measured with an EnVision plate reader (PerkinElmer, excitation 485 nm, emission 530 nm). […] BACE2 activity was assessed with 0.5 nM recombinant BACE2 (R&D Systems 4097-AS) and the same synthetic substrate used for BACE1, with a 1 h incubation time. […] CatE activity was assessed with 1.0 nM recombinant CatE (Creative BioMart CTSE-255H) and the same synthetic substrate used for CatD, with a 1.5 h incubation time.

[2] = target: T2, ~30 kDa band (CatD heavy chain) in ARPE-19 cells (Homo sapiens, UniProt P07339); test: Live cell PF-7802 labelling, in-gel fluorescence analysis; format: cell-based; details: pretreatment 2 µM inhibitor, PF-7802 100 nM
T2 construct: host or cells: ARPE-19
T2 sequence (P07339 169-412 limits assumed): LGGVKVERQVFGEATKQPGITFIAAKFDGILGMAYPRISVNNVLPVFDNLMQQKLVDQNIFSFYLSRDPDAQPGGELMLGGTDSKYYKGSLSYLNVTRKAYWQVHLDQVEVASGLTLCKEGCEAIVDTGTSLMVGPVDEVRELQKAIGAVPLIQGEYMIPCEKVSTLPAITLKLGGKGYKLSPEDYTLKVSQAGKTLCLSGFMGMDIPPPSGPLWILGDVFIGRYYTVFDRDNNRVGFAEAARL
T2 sequence (P07339 65-162 limits assumed): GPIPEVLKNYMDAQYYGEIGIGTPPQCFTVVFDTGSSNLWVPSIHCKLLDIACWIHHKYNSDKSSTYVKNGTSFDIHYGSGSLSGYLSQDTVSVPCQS
Procedure: Cells were lysed with sonication on ice in 70 μl DPBS and protein concentrations were determined using a BCA assay (Pierce). […] Gels were fixed in 50% MeOH/7% AcOH for 15 min, then rinsed with 40% MeOH for at least 20 min before in-gel fluorescence scanning (Typhoon Trio, excitation 532 nm, emission 580 nm).

[3] = system: CatD protein level in ARPE-19 cells; test: Chronic ARPE-19 inhibitor treatment and CatD ELISA; format: cell-based, human; details: 300 pM-10 μM, 7 days
Procedure: ARPE-19 cells were plated in 96-well plates at a density of 2 × 10^4 cells per well. After 12–24 h, media was removed and replaced with media containing test compounds at the indicated concentration. After 7 days of compound incubation (no media changes or additional test compound treatments), conditioned media was collected for a cytotoxicity assay, and attached cells were washed once with DPBS and then lysed on ice with gentle pipetting followed by a 20 min extraction in 50 μl in ice-cold RIPA buffer (50 mM Tris, pH 7.4, 150 mM NaCl, 1 mM EDTA, 1% NP40, 1% Na deoxycholate, 0.1% SDS) supplemented with 1 mM PMSF (Sigma) and EDTA-free protease inhibitor cocktail tablets (Roche). Cytotoxicity was determined from conditioned media using an LDH assay (Pierce 88954) as per the manufacturer's protocol. CatD protein levels were measured by ELISA (EMD Millipore Q1A29) as per the manufacturer's protocol. For both the LDH assay and the ELISA, absorbance was read on an EnVision plate reader (PerkinElmer). Data were normalized to DMSO and plotted in GraphPad Prism.

[4] = target: T3, BACE1 (Homo sapiens, UniProt P56817); test: BACE1 purified enzyme fluorescence polarization assay; format: biochemical; design: His (C); made in house; host or cells: CHO-K1
Procedure: as §1
Target sequence in this assay (P56817 46-457): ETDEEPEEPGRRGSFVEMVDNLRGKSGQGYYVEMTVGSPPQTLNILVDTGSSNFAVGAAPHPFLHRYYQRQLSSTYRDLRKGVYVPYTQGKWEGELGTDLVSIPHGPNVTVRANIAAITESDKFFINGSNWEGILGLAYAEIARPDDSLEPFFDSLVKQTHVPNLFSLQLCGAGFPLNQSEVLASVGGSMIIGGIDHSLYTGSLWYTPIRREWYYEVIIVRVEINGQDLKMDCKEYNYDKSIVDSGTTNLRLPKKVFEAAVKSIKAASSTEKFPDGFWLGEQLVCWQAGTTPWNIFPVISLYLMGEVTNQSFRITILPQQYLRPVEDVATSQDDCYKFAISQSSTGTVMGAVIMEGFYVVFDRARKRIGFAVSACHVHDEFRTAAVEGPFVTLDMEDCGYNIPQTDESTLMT

[5] = target: T4, CatD (Homo sapiens, UniProt P07339); test: CatD purified enzyme fluorescence polarization assay; format: biochemical; design: final maturation into a non-covalently associated heavy chain and light chain; purchased Sigma C8696; host or cells: human liver
Procedure: as §1
Target sequence in this assay (P07339 65-162 limits assumed): as the sequence (P07339 65-162 limits assumed) above
Target sequence in this assay (P07339 169-412 limits assumed): as the sequence (P07339 169-412 limits assumed) above

[6] = pKa determination by multiplexed capillary electrophoresis; format: physicochemical; details: aqueous buffers
Procedure: All pKa values were determined at Analiza, Inc. by multiplexed capillary electrophoresis (mCE) using 96-capillary array electrophoresis instrument to measure the effective mobility (migration time of the compound in relation to neutral marker, DMSO) with ultraviolet detection. The pKa values were obtained from the ionization curves by plotting the compound effective mobility (24 points across pH range 1.7–11.2) versus pH. All pKa results were determined using aqueous buffers with method average absolute error 0.12.

[7] = system: retinal pigment epithelium (RPE); test: Exploratory toxicology, ocular toxicity by retinal histology in rats; format: in vivo; details: rat
Procedure: (§2) Wistar Han rats (obtained from Charles River, 125–300 g, 6–9 weeks old at study start, see Supplementary Table 7 for number of males and females) received daily oral dosing of test compounds or vehicle at the indicated concentrations for 7–29 days as indicated. The doses were prepared in a solution of 0.5% methylcellulose and 0.2% polysorbate 80, or 0.5% methylcellulose and hydroxypropyl methylcellulose acetate succinate (high fine grade) and delivered in a volume of 10 ml kg^−1 per day. Blood samples for bioanalytical analysis were collected in K2EDTA tubes via jugular vessel. Plasma was isolated after centrifugation and stored at −20 °C prior to analysis. Animals were given an additional dose the day after the end of the study (days 8, 15 or 30 for 7, 14 and 29 day studies, respectively) then killed by gas anaesthesia (isoflurane) followed by exsanguination ∼3 h after this final dose.

[8] = Plasma exposure (average unbound plasma concentration) in rats; format: in vivo, rat; details: rat; for concentration at 7 days: Wistar Han, oral; for concentration at 7 days / concentration at 29 days: average unbound plasma concentration, read-out: Avg Cp,u parent; for concentration at 29 days / Avg Cp,u metabolite: 14 days; for Avg Cp,u metabolite: metabolite of the dosed compound
Procedure: as §2
Plasma samples were analysed after protein precipitation by treating 20 μl of sample matrix with 200 μl of acetonitrile containing internal standard. All samples were centrifuged at 3,000 r.p.m. for 5 min. Then 100 μl of supernatant was transferred to a clean plate and evaporated to dryness under N2. Samples were reconstituted in 200 μl of 80:20 (v:v) acetonitrile:water. Samples were analysed on Waters Acquity UPLC connected to AB Sciex API5500 QTrap MS/MS.
Plasma protein binding was determined in the Rapid Equilibrium Device (RED, Thermo Scientific). Frozen plasma was warmed to 37 °C and adjusted to pH 7.4. The plasma was spiked with compound to a final concentration of 2 μM. Aliquots of spiked plasma were added to the donor (red) side, followed by addition of buffer to the receiver (white) side. The RED device was covered with a gas-permeable membrane and agitated within a humidified CO2 incubator (5% CO2, 75% relative humidity). Plasma (15 μl) and buffer (45 μl) were sampled from each insert and were matrix-matched with appropriate blank matrix (plasma with 45 μl buffer and buffer with 15 μl of plasma). Samples were protein-precipitated with acetonitrile containing internal standard, and the resulting supernatant was analysed by LC-MS/MS.

[9] = system: retinal pigment epithelium (RPE); design: method as in PMID 22090477, PMID 25361751; details: cited from earlier work
[10] = target: T4, CatD; test: CatD cellular assay (competition of PF-7802 photolabelling in live ARPE-19 cells); format: cell-based; design: host or cells: ARPE-19; details: for CatD potency increase in live cells: CatD enzyme IC50 versus CatD cellular IC50
Procedure: ARPE-19 cells were plated at a density of 1.2 × 10^6 cells per well in six-well dishes 12–24 h before probe labelling. Culture media was removed completely and replaced with 1 ml of the appropriate serum-free media (no supplements) per well. Cells were then pretreated with test compounds at the indicated concentrations for 30 min (0.5% DMSO, 37 °C, 5% CO2). […] Ultraviolet irradiation was performed without culture plate lids for efficient irradiation, and samples were slowly rotated to prevent evaporation. After ultraviolet irradiation, cells were washed twice with Dulbecco's phosphate-buffered saline (DPBS), scraped into DPBS, centrifuged and stored as pellets at −80 °C.
Cells were lysed with sonication on ice in 70 μl DPBS and protein concentrations were determined using a BCA assay (Pierce). Total protein concentrations were then normalized to 1 mg ml^−1 in 50 μl total volume before addition of 5.5 μl click chemistry mix (1 : 3 : 1 : 0.5 volume of 50 mM CuSO4 (Sigma) in H2O : 1.7 mM TBTA (Sigma) in 4:1 t-BuOH:DMSO : 50 mM TCEP (Hampton Research) in dPBS : 10 mM TAMRA-azide (Lumiprobe) in DMSO - mixed immediately before use. Reagent solutions can be premade and stored at 4 °C except for TCEP, which should be made immediately before use). […] All fluorescence gels are presented in greyscale.
Target sequence in this assay (P07339 169-412 limits assumed): as above
Target sequence in this assay (P07339 65-162 limits assumed): as the sequence (P07339 65-162 limits assumed) above

[11] = target: T3, BACE1; test: BACE1 biochemical cellular assay (sAPPβ ELISA in H4 cells overexpressing APP695); format: cell-based; design: endogenous in cells; host or cells: H4 human neuroglioma cells overexpressing human APP695; details: for BACE1 potency increase in live cells: BACE1 enzyme IC50 versus BACE1 cellular IC50
Procedure: Cellular inhibition of BACE1 was determined by measuring sAPPβ, the primary cleavage product of BACE-1, in H4 human neuroglioma cells overexpressing the wild-type human APP695. […] The colorimetric reaction was read by an EnVision plate reader (PerkinElmer).
Target sequence in this assay (P56817 46-501): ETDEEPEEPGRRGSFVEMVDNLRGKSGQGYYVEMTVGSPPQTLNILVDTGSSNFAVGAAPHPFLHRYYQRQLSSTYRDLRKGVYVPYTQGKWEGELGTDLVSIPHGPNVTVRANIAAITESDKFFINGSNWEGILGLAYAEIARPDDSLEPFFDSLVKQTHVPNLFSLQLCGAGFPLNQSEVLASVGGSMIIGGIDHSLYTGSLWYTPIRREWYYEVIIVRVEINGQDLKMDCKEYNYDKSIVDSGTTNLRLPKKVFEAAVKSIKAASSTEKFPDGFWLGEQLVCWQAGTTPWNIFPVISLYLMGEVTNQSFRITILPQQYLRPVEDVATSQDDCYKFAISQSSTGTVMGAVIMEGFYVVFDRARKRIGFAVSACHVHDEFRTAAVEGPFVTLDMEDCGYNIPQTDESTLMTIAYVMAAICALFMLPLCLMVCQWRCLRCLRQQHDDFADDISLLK

[12] = In vivo metabolism of BACE1 inhibitors in rats; design: species or system rat
[13] = 14 days, 110 mg kg-1 once daily

SMILES: CNC1CCN(C(=O)C[C@@H](Cc2ccccc2)C(=O)N[C@@H](CSC)C(=O)N[C@@H](CC2CCCCC2)[C@@H](O)C(=O)OC(C)C)CC1 [CP-108671, reference compound]
- BACE2 activity [1]: no activity
- Competition of PF-7802 labelling of the 30 kDa band [2]: blocked labelling of the 30 kDa band
- CatD protein accumulation (ELISA) [3]: could be reproduced
- BACE1 activity [4]: no BACE1 activity
- Inhibition of purified CatD ([5]; purified CatD biochemical substrate assay): potent; also recorded: nanomolar potency

SMILES: C[C@@]1(c2cc(-c3cncnc3)c(F)cc2F)CCSC(N)=N1 [LY2811376, reference compound]
- pKa ([6]; read-out: pKa): 8.9
- Competition of PF-7802 labelling of the 30 kDa band [2]: blocked labelling of the 30 kDa band
- Male ocular toxicity incidence (positive or negative animals / total evaluated) ([7]; 7 days, 25 mg kg-1 once daily): 1/4
- Male ocular toxicity outcome ([7]; 7 days, 25 mg kg-1 once daily): Pos
- Male ocular toxicity incidence (positive or negative animals / total evaluated) ([7]; 7 days, 75 mg kg-1 once daily): 4/4
- Male ocular toxicity outcome ([7]; 7 days, 75 mg kg-1 once daily): Pos
- concentration at 7 days ([8]; 25 mg kg-1 once daily): 741 nM
- concentration at 7 days ([8]; 75 mg kg-1 once daily): 4370 nM
- Ocular toxicity in preclinical animal models [9]: ocular toxicity in preclinical animal models
- CatD potency difference between cell-free enzyme and cellular assays [10]: 95 fold
- CatD potency increase in live cells [10]: 95 x
- BACE1 potency increase in live cells [11]: 18 x

SMILES: Cc1coc([C@H]2C[C@H]3[C@@H](CF)SC(N)=N[C@@]3(c3ccc(F)cc3F)CO2)n1 [PF-1283]
- IC50 ([1]; purified human enzyme, fluorescence polarization): 95 nM
- pKa [6]: 7.0
- Female ocular toxicity incidence (positive or negative animals / total evaluated) ([7]; 14 days, 45 mg kg-1 once daily): 3/3
- Female ocular toxicity outcome ([7]; 14 days, 45 mg kg-1 once daily): Neg (negative (neg) if there was no ocular abnormality observed)
- Male ocular toxicity incidence (positive or negative animals / total evaluated) ([7]; 14 days, 45 mg kg-1 once daily): 3/3
- Male ocular toxicity outcome ([7]; 14 days, 45 mg kg-1 once daily): Neg (negative (neg) if there was no ocular abnormality observed)
- Female ocular toxicity incidence (positive or negative animals / total evaluated) [7, 13]: 1/3
- Female ocular toxicity outcome [7, 13]: Pos
- Male ocular toxicity incidence (positive or negative animals / total evaluated) [7, 13]: 3/3
- Male ocular toxicity outcome [7, 13]: Neg (negative (neg) if there was no ocular abnormality observed)
- concentration at 29 days ([8]; 45 mg kg-1 once daily): 109 nM
- Avg Cp,u metabolite ([8]; 45 mg kg-1 once daily): 352 nM
- concentration at 29 days ([8]; 110 mg kg-1 once daily): 793 nM
- Avg Cp,u metabolite ([8]; 110 mg kg-1 once daily): 859 nM
- Stability to oxidative metabolism [12]: significantly more stable to oxidative metabolism; also recorded: significantly less susceptible to oxidative metabolism
- CatD potency increase in live cells [10]: 54 x
- IC50 ([10]; live ARPE-19 cells, PF-7802 photoprobe 100 nM, 30 min): 240 nM
- IC50 ([4]; purified human enzyme, fluorescence polarization, peptide substrate): 120 nM
- BACE1 potency increase in live cells [11]: 12 x
- IC50 ([11]; sAPPβ ELISA, H4 neuroglioma cells with human wild-type APP): 10 nM
- IC50 ([5]; purified human enzyme, fluorescence polarization, substrate-based): 13000 nM
